Results as given in article PMC8176454, “Synthesis and Assessment of Novel Probes for Imaging Tau Pathology in Transgenic Mouse and Rat Models” (ACS Chemical Neuroscience, 2021).
Entries after “also recorded” stand apart in the source; their conditions may differ. Like-named read-outs stand apart in the source and are kept apart here.

Experiments:
[1] = molecular target: T1, heparin-induced synthetic recombinant tau fibrils (tau-441 human) (Homo sapiens, UniProt P10636); assay: Fluorescence quenching assay of compound binding to heparin-induced synthetic recombinant tau fibrils; conditions: read-out: Kd of compound binding to heparin-induced synthetic tau fibrils determined by fluorimetry
T1 construct: purchased Eurogentec
T1 sequence (P10636 1-441 isoform P10636-8): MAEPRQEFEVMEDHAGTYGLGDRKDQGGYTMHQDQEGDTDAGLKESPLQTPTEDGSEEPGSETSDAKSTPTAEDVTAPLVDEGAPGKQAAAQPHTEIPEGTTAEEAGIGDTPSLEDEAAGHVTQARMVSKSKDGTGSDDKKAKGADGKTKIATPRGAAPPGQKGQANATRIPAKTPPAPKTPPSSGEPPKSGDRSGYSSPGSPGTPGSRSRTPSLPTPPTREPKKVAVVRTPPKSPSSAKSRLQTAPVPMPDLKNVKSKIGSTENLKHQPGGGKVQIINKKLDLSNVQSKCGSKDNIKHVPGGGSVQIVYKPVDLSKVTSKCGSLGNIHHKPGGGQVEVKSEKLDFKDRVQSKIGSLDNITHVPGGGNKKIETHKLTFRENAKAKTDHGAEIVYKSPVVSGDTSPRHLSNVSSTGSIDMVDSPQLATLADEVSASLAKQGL
Procedure: All compounds were assessed for their ability to bind to synthetic recombinant tau fibrils using a fluorescence quenching assay[20] […] Binding affinities for some compounds (141, 164, 166, 169, 171, and 207) could not be assessed with this assay because of negligible changes in fluorescence intensity. […] This compound was then selected for further characterization and development.
All reagents and solvents were used as supplied or purified using standard procedures as necessary. Analytical separation was conducted on an Ultimate 3000 HPLC system (Thermo Scientific). [^11C]CO2 was produced via the ^14N(p,α) nuclear reaction using GE PETtrace cyclotron applying 16.5 MeV protons onto 0.5% oxygen in nitrogen gas. [^11C]Methyl iodide was synthesized on a GE Medical Systems MeI MicroLab. A F-4500 FL spectrophotometer (Chemical Engineering department, University of Cambridge) was used to do fluorescence scan of all of the compounds mixed with tau fibrils. Excitation wavelength was 365 nm, and emission was scanned from 400 to 600 nm. With parameters, setting excitation slit was 5.0 nm, emission slit was 20.0 nm, PMT voltage was 950 V, and response was 0.5 s.
Monomeric tau (tau-441 human) lyophilized powder was obtained from Eurogentec. Tau monomers (100 μM) were prepared in 20 mM BES buffer (pH 7.4 with 25 mM NaCl and 2 mM dithiothreitol and incubated at 56 °C for 10 min. After being cooled to room temperature in a water bath, heparin (25 μM) and a protease inhibitor mix were added and incubated at 37 °C for 10 days. […]
Binding affinity of all compounds with tau fibrils […]
All other compounds binding affinit ies towards tau fibrils
were then tested by fluorescent binding assay. […]

[2] = system: tau aggregates in DRG neurons from P301S tau mice; assay: Fluorescence binding to cultured DRG neurons from P301S tau transgenic mice; type: cell-based, mouse; conditions: for IC50: Mus musculus, DRG neuron
Procedure: P301S tau mice with aggregated tau in the brain also express aggregated tau in DRG neurons.[24]−[26] […] To estimate the apparent affinity of LM229 to tau aggregates directly in living neurons, we imaged live neurons after 20 min incubation with various concentrations of LM229 (Figure 4A). […] LM229 binding was specific to neurons with aggregated tau, as detected with the AT100 antibody[18],[22],[23],[26] (Figure 4D). […] Although PBB3 also bound to DRG neurons with tau aggregates at 30–100 μM, it was not possible to derive an IC50 value because of its low affinity in this assay (Supporting Information, Figure S2). […] The shift from nanomolar to micromolar affinity between binding to heparin tau fibrils and tau aggregates in P301S tau neurons may reflect the different environment and assay conditions or the different conformations that tau aggregates assume in neurons compared to heparin–tau complexes.[27]
Neurons were prepared from phenotypic end stage 5–7 month old P301S tau mice and cultured as described previously.[24] For live staining, neurons cultured for 2 days were washed in PBS and incubated with various concentrations of LM229 for 20 min at room temperature. After three washes in PBS, neurons were imaged on a Leica DMI 4000B microscope using a DFC3000 G camera and application suite 4.0.0.11706. The dead cell stain Propidium iodide (1 μg/mL) was added to ensure that only live cells were imaged. Phase contrast images were taken to show viable neurons. For fixed cell staining, neurons were fixed for 20 min at room temperature in 4% paraformaldehyde, washed in PBS, and permeabilized in PBS containing 0.3% Triton X-100. LM299 was added as described for live cells, and cells were probed with AT100 (1:1000, MN1060) followed by anti-mouse AlexaFluor568 secondary antibody. Cultures were co-stained with the nuclear dye DAPI (blue) to reveal total cells. […]
Binding to cultured neurons from P301S tau transgenic mice
DRG were incubated with the indicated concentrations of LM229 or PBB3 for 20 minutes at room temperature, washed 3 times in PBS, and imaged on a Leica DMI 4000B microscope using a Leica DFC3000 G camera and the Leica application suite 4.0.0.11706. Fluorescence intensity was measured in 10-16 neurons each from 3 independent cultures using Image J (imagej.nih.gov/ij/). Results shown are mean ± SD. Non linear least squares curve fitting was applied using http://faculty.gvsu.edu/carlsont/232lab/nonlin2.html. No Km value was […]
Figure S2: Binding of LM229 and PBB3 to DRG neurons with tau aggregates […]
(1 picture or pasted object on this page, not shown here)

[3] = molecular target: T2, tau aggregates in brain of P301S tau mice (Homo sapiens, UniProt P10636, P618S); assay: Ex vivo mouse study: i.v. injection, brain sections imaged after 1 h; type: in vivo
T2 construct: from tissue; host or cells: brain of transgenic P301S tau mice (C57Bl/6 background)
T2 sequence (P10636 1-383 isoform P10636-6 P243S): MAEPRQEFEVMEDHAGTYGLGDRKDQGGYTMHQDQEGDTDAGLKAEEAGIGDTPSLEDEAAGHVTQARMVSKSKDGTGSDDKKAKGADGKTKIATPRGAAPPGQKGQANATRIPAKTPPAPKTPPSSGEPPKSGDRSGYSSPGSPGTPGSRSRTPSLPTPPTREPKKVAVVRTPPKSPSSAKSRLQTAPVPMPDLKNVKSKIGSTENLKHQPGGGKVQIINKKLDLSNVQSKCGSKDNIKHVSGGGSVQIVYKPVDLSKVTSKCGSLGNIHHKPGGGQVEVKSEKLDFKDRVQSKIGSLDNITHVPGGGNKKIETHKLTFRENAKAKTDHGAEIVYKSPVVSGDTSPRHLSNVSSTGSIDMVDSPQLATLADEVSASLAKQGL
Procedure: We next looked at the ability of LM229 to cross the blood–brain barrier (BBB), a key property of any viable neuro-radiotracer. LM229 was injected intravenously (i.v.) (1 mg/kg weight), and after 1 h, WT and P301S tau mice were perfused-fixed and brain sections were imaged under a fluorescence microscope. […] However, we await a comparison of PBB3 and LM229 by PET imaging to determine their relativity properties as in vivo imaging probes.
Mice were injected intravenously (i.v.) with 50 μM LM229 or PBB3 (DMSO) diluted in 50:50 ethanol/PBS. Animals were then perfused (4% PFA) 1 h post-i.v.

For `CNc1ccc(/C=C/C=C/c2nc3cc(F)c(O)cc3s2)cn1` [LM229], the Kd [1] was 3.6 nM, the “Retention of fluorescence in neurons after exposure and washes” value ([2]; 3 days after exposure) was “still retained albeit to a lower intensity” and the IC50 ([2]; 20 min, live DRG neurons, 20 min incubation, read-out: IC50, apparent affinity to tau aggregates in live neurons) was 2700 ± 700 nM. The IC50 ([2]; fixed DRG neurons, figure legend value, read-out: IC50, fixed neurons (Figure 4B)) was 1670 ± 280 nM, the IC50 ([2]; fixed, permeabilized DRG neurons, read-out: IC50, fixed and permeabilized neurons) was 1700 ± 300 nM and the IC50 ([2]; live DRG neurons, figure legend value, read-out: IC50, live neurons (Figure 4B)) was 2970 ± 730 nM. The Cell permeability ([2]; live vs fixed/permeabilized DRG neurons) was “highly cell permeable”, the “Blood–brain barrier crossing” value ([3]; i.v. 1 mg/kg, 1 h, fluorescence microscopy) was “crosses the BBB” and the “Ex vivo binding in P301S tau brain tissue” value ([3]; i.v. injection 1 h prior, colocalization with AT8) was “less non-specific binding and more specific binding to tau aggregates; also recorded: significant specific binding to tau aggregates”.
